# Read-outs that look alike come from different tables or passages of the source.
# What was measured:
# Assay type in all cases: cell-based
# [1] = tested on: 385 Escherichia coli and 126 Klebsiella pneumoniae isolates; assay: MIC, MIC50 and MIC90 by reference broth microdilution against 511 UTI/bloodstream isolates (USA and Europe 2014-2015); details: 511 isolates; for MIC90: read-out: MIC90; for EUCAST % I: EUCAST 2016 criteria
# [2] = tested on: Escherichia coli isolates with an ESBL-phenotype; assay: In vitro MIC90 of a panel of approved antibiotics, US surveillance program
# [3] = tested on: Enterobacter cloacae isolates; assay: MIC of cephalosporins alone or with clavulanate/tazobactam; details: clavulanate 2:1, tazobactam 4 μg/mL
# [4] = tested on: Citrobacter freundii isolates; assay: as above; details: clavulanate 2:1, tazobactam 4 μg/mL
# [5] = tested on: Escherichia coli isolates; assay: as above; details: clavulanate 2:1, tazobactam 4 μg/mL
# [6] = tested on: Klebsiella oxytoca isolates; assay: as above; details: clavulanate 2:1, tazobactam 4 μg/mL
# [7] = tested on: Enterobacter aerogenes isolates; assay: as above; details: Klebsiella aerogenes, clavulanate 2:1, tazobactam 4 μg/mL
# [8] = tested on: Klebsiella pneumoniae isolates; assay: as above; details: clavulanate 2:1, tazobactam 4 μg/mL
# [9] = Escherichia coli, E. coli (n = 124), ESBL-phenotype, read-out: MIC90
compound,measurement,setting,value
CC1(C)S[C@@H]2[C@H](/N=C/N3CCCCCC3)C(=O)N2[C@H]1C(=O)O [Mecillinam],MIC50,[1],2 µg/mL
same,MIC90,[1],> 32 µg/mL
Gentamicin,MIC90,"[2]; E. coli (n = 124), ESBL-phenotype",>8 µg/mL
"C[C@]1(Cn2ccnn2)[C@H](C(=O)O)N2C(=O)C[C@H]2S1(=O)=O [Tazobactam, tazobactam]",MIC,[3]; AECL1065 (CTX-M-15),> 64 µg/mL
same,MIC,[3]; AECL1067 (CTX-M-3),> 64 µg/mL
same,MIC,"[4]; ACFR1034 (CTX-M-15, TEM-OSBL)",> 64 µg/mL
same,MIC,"[4]; ACFR1035 (CTX-M-3, TEM-OSBL)",> 64 µg/mL
same,MIC,[5]; AECO001 (no ESBL),> 64 µg/mL
same,MIC,[5]; AECO1078 (CTX-M-15),> 64 µg/mL
same,MIC,[5]; AECO1147 (CTX-M-15),> 64 µg/mL
same,MIC,"[5]; AECO1157 (CTX-M-15, TEM-OSBL)",> 64 µg/mL
same,MIC,[5]; AECO1159 (CTX-M-15),> 64 µg/mL
same,MIC,"[5]; AECO1169 (CTX-M-1, TEM-OSBL)",> 64 µg/mL
same,MIC,[5]; AECO1172 (CTX-M-14),> 64 µg/mL
same,MIC,"[6]; AKOX1005 (SHV-2, TEM-1, DHA-1)",> 64 µg/mL
same,MIC,[6]; AKOX1009 (CTX-M-15),> 64 µg/mL
same,MIC,[7]; AEAE1027 (CTX-M-14),> 64 µg/mL
same,MIC,[7]; AEAE1029 (CTX-M-15),> 64 µg/mL
same,MIC,[8]; AKPN1159 (SHV-12),> 64 µg/mL
same,MIC,[8]; AKPN1161 (SHV-7),> 64 µg/mL
same,MIC,"[8]; AKPN1162 (CTX-M-15, SHV-12)",> 64 µg/mL
same,MIC,"[8]; AKPN1166 (CTX-M-14, SHV-12)",> 64 µg/mL
same,MIC,[8]; AKPN1167 (SHV-2),> 64 µg/mL
C[C@@H](O)[C@H]1C(=O)N2C(C(=O)O)=C(S[C@@H]3CN[C@H](CNS(N)(=O)=O)C3)[C@H](C)[C@H]12 [Doripenem],MIC90,[2]; [9],≤ 0.06 µg/mL
CN(C)c1cc(NC(=O)CNC(C)(C)C)c(O)c2c1C[C@H]1C[C@H]3[C@H](N(C)C)C(O)=C(C(N)=O)C(=O)[C@@]3(O)C(O)=C1C2=O [Tigecycline],MIC90,[2]; Escherichia coli,0.25 µg/mL
NCC[C@H](O)C(=O)N[C@@H]1C[C@H](N)[C@@H](O[C@H]2O[C@H](CN)[C@@H](O)[C@H](O)[C@H]2O)[C@H](O)[C@H]1O[C@H]1O[C@H](CO)[C@@H](O)[C@H](N)[C@H]1O [Amikacin],MIC90,[2]; [9],8 µg/mL
NC[C@H]1O[C@H](O[C@H]2[C@H](O)[C@@H](O[C@H]3O[C@H](CO)[C@@H](O)[C@H](N)[C@H]3O)[C@H](N)C[C@@H]2N)[C@H](N)C[C@@H]1O [Tobramycin],MIC90,[2]; [9],> 8 µg/mL
C[C@H]1[C@H](NC(=O)/C(=N\OC(C)(C)C(=O)O)c2csc(N)n2)C(=O)N1S(=O)(=O)O [Aztreonam],MIC90,[2]; [9],> 16 µg/mL
same,MIC50,[1],> 16 µg/mL
same,EUCAST % I,[1],13.9%
same,MIC90,[1],> 16 µg/mL
C[C@@H](O)[C@H]1C(=O)N2C(C(=O)O)=C(SCCN=CN)C[C@H]12 [Imipenem],MIC90,[2]; [9],0.25 µg/mL
same,MIC50,[1],≤ 0.12 µg/mL
same,EUCAST % I,[1],2.7%
same,MIC90,[1],0.5 µg/mL
